Test results as given in patent publication US9783495B2, “Treatment for lipodystrophy” (Cadila Healthcare Limited, priority 2011, dated 2017).

What was measured:
[1] = system: HIV-infected men with central obesity and low testosterone levels; details: transdermal gel 10 g daily, 24 weeks, cited from earlier work
[2] = system: subjects with hypertriglyceridemia in HIV associated lipodystrophy; experiment: Prospective, multi-centric, open-label, single arm study of 4 mg of compound of formula (I) in hypertriglyceridemia in HIV associated lipodystrophy; type: in vivo, human; details: 4 mg oral once daily; for Homa of Insulin Resistance for C-Peptide, Mean ± SD: Visit 1 mean 1.59 ± 0.82; for Insulin (fasting), Mean ± SD: Visit 1 mean 9.21 ± 6.26; for HDL Cholesterol, Mean ± SD: Visit 1 mean 35.27 ± 7.85; for HOMA of Beta Cell Function for Insulin, Mean ± SD: Visit 1 mean 107.82 ± 52.85; for TG, Mean ± SD: Visit 1 mean 301.68 ± 86.99; for Homa of Insulin Resistance for C-Peptide, Median: Visit 1 median 1.40; for Insulin (fasting), Median: Visit 1 median 7.40; for HDL Cholesterol, Median: Visit 1 median 34.52; for HOMA of Beta Cell Function for Insulin, Median: Visit 1 median 97.25; for TG, Median: Visit 1 median 275.45
Excerpt: After obtaining informed written consent, subjects with hypertriglyceridemia in HIV associated lipodystrophy, on treatment with HAART for at least 18 months and satisfying the inclusion and exclusion criteria were enrolled in the study.
The primary efficacy endpoint was to assess the percent change in TG levels from baseline to Week 6 and Week 12. The secondary efficacy endpoint was the assessment of LDL, VLDL, HDL, Non HDL cholesterol, Total cholesterol, Apo Al, Apo B, and C-peptide and fasting insulin for HOMA beta and HOMA IR.
For the efficacy endpoints, treatment effect was evaluated using an analysis of variance (ANOVA) model with factors for baseline and treatment. Treatment effects were estimated using the least-square means (LSM) and 95% confidence intervals (CIs) from the ANOVA model. Statistical significance was defined as a two-sided p-value <0.05. All other secondary endpoints were analyzed using appropriate statistical methods.
Subjects who satisfied all of the following criteria were eligible for enrolment in the study: • 1. Males and females aged 18-65 years. • 2. Confirmed diagnosis of HIV1 and on HAART for at least 18 months. • 3. On stable ART regimen for at least 8 weeks prior to inclusion in the study and ART regimen not expected to change in next 3 months. • 4. Subjects clinically diagnosed as HIV lipodystrophy (at least 1 moderate or severe lipodystrophy feature identified by doctor and patient, except isolated abdominal obesity) • 5. Triglycerides>200 to 500 mg %. • 6. CD4 count of>50/mm^3 • 7. Subject who had given informed consent for participation in this trial. Treatments Treatments Administered […]
The primary efficacy endpoint was to determine the percent change in TG levels from baseline to Week 6 and Week 12.
The secondary efficacy endpoint was to determine the percent change in LDL, VLDL, HDL, total cholesterol, non-HDL Cholesterol (measured value), Apo Al, and Apo B, C-peptide and fasting insulin for HOMA beta and HOMA IR levels from baseline to Week 6 and Week 12.
The primary efficacy variable was the reduction in TG at Week 6 and Week 12 of the treatment period compared with baseline. The change from baseline was determined as the difference between the means for the treatment period (Weeks 6/Weeks 12) and the baseline.
Intent-to-treat (ITT) and/or Per Protocol (PP) analysis were carried out for the study. The PP analysis was considered definitive while the ITT analysis was considered supportive during the trial analysis.
One subject identified as EHT004 in the study, a person, was reported with abnormally low levels of HDL (3.95 mg/L) and LDL (6.25 mg/L) at Visit 1. Though this subject completed the study and was assessable for efficacy, it was decided to exclude this subject from the efficacy analyses. Therefore a total of 49 subjects were analyzed for efficacy.

[3] = system: Dyslipidemia subjects; experiment: Phase II studies in Dyslipidemia subjects; type: in vivo, human; details: 4 mg once daily
Protocol: This was exploratory proof of concept study designed to assess the proof of safety and efficacy in intended population. […] Based upon these observations 4 mg once daily in fasted condition was selected for present study

[4] = Phase I study, effect of food on absorption; type: in vivo, human
[5] = Visit 3 (Week 6), p <0.0001, listed as COMPOUND OF FORMULA(I)
[6] = Visit 4 (Week 12), p <0.0001, listed as COMPOUND OF FORMULA(I)

For `C[C@]12CC[C@H]3[C@@H](CCC4=CC(=O)CC[C@@]43C)[C@@H]1CC[C@@H]2O` [testosterone], the “change in VAT” value ([1]; placebo +2.3%, no statistically significant difference) is listed as “+0.9%”, the “change in limb fat” value ([1]; placebo +3.1%, statistically significant) is listed as −10.1% and the “change in abdominal fat” value ([1]; placebo +4.3%, statistically significant) is listed as −1.5%. The “change in trunk fat” value ([1]; placebo +4.6%, statistically significant) was −9.9% and the “change in abdominal subcutaneous adipose tissue (SAT)” value ([1]; placebo +8.1%, statistically significant) was −7.2%.

For “(S)-α-Ethoxy-4-[2-[-methyl-5-[4-(methylthio)phenyl]-1H-pyrrol-1-yl]ethoxy] benzenepropanoic acid magnesium salt [compound of formula (I)]”, the “HDL Cholesterol, Maximum” value ([2]; Visit 3 (Week 6)) was 73.50 mg/dL, the “HDL Cholesterol, Minimum” value ([2]; Visit 3 (Week 6)) was 20.13 mg/dL and the “HOMA of Beta Cell Function for Insulin, Maximum” value ([2]; Visit 3 (Week 6)) was 348.00. The “HOMA of Beta Cell Function for Insulin, Minimum” value ([2]; Visit 3 (Week 6)) was 34.90, the “Homa of Insulin Resistance for C-Peptide, Maximum” value ([2]; Visit 3 (Week 6)) was 3.60 and the “Homa of Insulin Resistance for C-Peptide, Minimum” value ([2]; Visit 3 (Week 6)) was 0.90. The “Insulin (fasting), Maximum” value ([2]; Visit 3 (Week 6)) was 26.82 μu/mL, the “Insulin (fasting), Minimum” value ([2]; Visit 3 (Week 6)) was 2.14 μu/mL and the “TG, Maximum” value ([2]; Visit 3 (Week 6)) was 631.08 mg/dL. The “TG, Minimum” value ([2]; Visit 3 (Week 6)) was 42.61 mg/dL, the “Homa of Insulin Resistance for C-Peptide, Mean ± SD” value ([2]; Visit 3 (Week 6)) was 1.86 ± 0.77 and the “Insulin (fasting), Mean ± SD” value ([2]; Visit 3 (Week 6)) was 10.42 ± 5.74 μu/mL. The “HDL Cholesterol, Mean ± SD” value ([2]; Visit 3 (Week 6)) was 44.44 ± 14.04 mg/dL, the “HOMA of Beta Cell Function for Insulin, Mean ± SD” value ([2]; Visit 3 (Week 6)) was 136.41 ± 76.00 and the “TG, Mean ± SD” value ([2]; Visit 3 (Week 6)) was 172.81 ± 106.30 mg/dL. For the same molecule, the “Homa of Insulin Resistance for C-Peptide, Median” value ([2]; Visit 3 (Week 6)) was 1.70, the “Insulin (fasting), Median” value ([2]; Visit 3 (Week 6)) was 8.35 μu/mL and the “HDL Cholesterol, Median” value ([2]; Visit 3 (Week 6)) was 43.36 mg/dL. For the same molecule, the “HOMA of Beta Cell Function for Insulin, Median” value ([2]; Visit 3 (Week 6)) was 116.50, the “TG, Median” value ([2]; Visit 3 (Week 6)) was 147.68 mg/dL and the “HOMA of Beta Cell Function for Insulin, % Change from Visit 1 (LS Mean ± SE)” value ([2]; Visit 3 (Week 6), p 0.0010) was 52.50±14.94%. For the same molecule, the “HOMA of Beta Cell Function for Insulin, % Change from Visit 1 (LS Mean ± SE)” value ([2]; Visit 3 (Week 6), p 0.0010, listed as COMPOUND OF FORMULA(I)) was 52.50 ± 14.94%, the “HOMA of Beta Cell Function for Insulin, Change from Visit 1 (LS Mean ± SE)” value ([2]; Visit 3 (Week 6), p 0.0015) was 29.55 ± 8.76 and the “HDL Cholesterol, % Change from Visit 1 (LS Mean ± SE)” value ([2]; Visit 3 (Week 6), p <0.0001) was 29.92±5.73%. The “HDL Cholesterol, Change from Visit 1 (LS Mean ± SE)” value ([2]; Visit 3 (Week 6), p <0.0001) was 9.17 ± 1.99 mg/dL, the “Homa of Insulin Resistance for C-Peptide, % Change from Visit 1 (LS Mean ± SE)” value ([2]; Visit 3 (Week 6), p <0.0001) was 27.87±4.22% and the “Homa of Insulin Resistance for C-Peptide, Change from Visit 1 (LS Mean ± SE)” value ([2]; Visit 3 (Week 6), p <0.0001) was 0.27 ± 0.05. The “Insulin (fasting), % Change from Visit 1 (LS Mean ± SE)” value ([2]; Visit 3 (Week 6), p <0.0001) was 23.71±3.55%, the “Insulin (fasting), Change from Visit 1 (LS Mean ± SE)” value ([2]; Visit 3 (Week 6), p <0.0001) was 1.21 ± 0.22 μu/mL and the “TG, % Change from Visit 1 (LS Mean ± SE)” value ([2]; Visit 3 (Week 6), p <0.0001) was -40.98±4.89%. For the same molecule, the “TG, Change from Visit 1 (LS Mean ± SE)” value ([2]; Visit 3 (Week 6), p <0.0001) was -128.87 ± 14.96 mg/dL, the “HDL Cholesterol, % Change from Visit 1 (LS Mean ± SE)” value [2, 5] was 29.92 ± 5.73% and the “Homa of Insulin Resistance for C-Peptide, % Change from Visit 1 (LS Mean ± SE)” value [2, 5] was 27.87 ± 4.22%. For the same molecule, the “Insulin (fasting), % Change from Visit 1 (LS Mean ± SE)” value [2, 5] was 23.71 ± 3.55%, the “TG, % Change from Visit 1 (LS Mean ± SE)” value [2, 5] was −40.98 ± 4.89% and the “HDL Cholesterol, Maximum” value ([2]; Visit 4 (Week 12)) was 82.89 mg/dL. For the same molecule, the “HDL Cholesterol, Minimum” value ([2]; Visit 4 (Week 12)) was 17.61 mg/dL, the “HOMA of Beta Cell Function for Insulin, Maximum” value ([2]; Visit 4 (Week 12)) was 273.30 and the “HOMA of Beta Cell Function for Insulin, Minimum” value ([2]; Visit 4 (Week 12)) was 9.80. The “Homa of Insulin Resistance for C-Peptide, Maximum” value ([2]; Visit 4 (Week 12)) was 3.60, the “Homa of Insulin Resistance for C-Peptide, Minimum” value ([2]; Visit 4 (Week 12)) was 1.10 and the “Insulin (fasting), Maximum” value ([2]; Visit 4 (Week 12)) was 24.29 μu/mL. For the same molecule, the “Insulin (fasting), Minimum” value ([2]; Visit 4 (Week 12)) was 5.93 μu/mL, the “TG, Maximum” value ([2]; Visit 4 (Week 12)) was 387.69 mg/dL and the “TG, Minimum” value ([2]; Visit 4 (Week 12)) was 46.88 mg/dL. The “Homa of Insulin Resistance for C-Peptide, Mean ± SD” value ([2]; Visit 4 (Week 12)) was 2.15 ± 0.62, the “Insulin (fasting), Mean ± SD” value ([2]; Visit 4 (Week 12)) was 11.40 ± 4.45 μu/mL and the “HDL Cholesterol, Mean ± SD” value ([2]; Visit 4 (Week 12)) was 46.14 ± 14.84 mg/dL. For the same molecule, the “HOMA of Beta Cell Function for Insulin, Mean ± SD” value ([2]; Visit 4 (Week 12)) was 137.56 ± 46.11, the “TG, Mean ± SD” value ([2]; Visit 4 (Week 12)) was 166.97 ± 89.17 mg/dL and the “Homa of Insulin Resistance for C-Peptide, Median” value ([2]; Visit 4 (Week 12)) was 2.10. The “Insulin (fasting), Median” value ([2]; Visit 4 (Week 12)) was 10.18 μu/mL, the “HDL Cholesterol, Median” value ([2]; Visit 4 (Week 12)) was 47.70 mg/dL and the “HOMA of Beta Cell Function for Insulin, Median” value ([2]; Visit 4 (Week 12)) was 125.60. The “TG, Median” value ([2]; Visit 4 (Week 12)) was 145.91 mg/dL, the “HDL Cholesterol, % Change from Visit 1 (LS Mean ± SE)” value ([2]; Visit 4 (Week 12), p <0.0001) was 34.56±6.13% and the “HDL Cholesterol, Change from Visit 1 (LS Mean ± SE)” value ([2]; Visit 4 (Week 12), p <0.0001) was 10.87 ± 2.08 mg/dL. The “HOMA of Beta Cell Function for Insulin, % Change from Visit 1 (LS Mean ± SE)” value ([2]; Visit 4 (Week 12), p <0.0001) was 45.64±6.22%, the “HOMA of Beta Cell Function for Insulin, Change from Visit 1 (LS Mean ± SE)” value ([2]; Visit 4 (Week 12), p <0.0001) was 30.78 ± 4.25 and the “Homa of Insulin Resistance for C-Peptide, % Change from Visit 1 (LS Mean ± SE)” value ([2]; Visit 4 (Week 12), p <0.0001) was 58.29±5.74%. For the same molecule, the “Homa of Insulin Resistance for C-Peptide, Change from Visit 1 (LS Mean ± SE)” value ([2]; Visit 4 (Week 12), p <0.0001) was 0.56 ± 0.05, the “Insulin (fasting), % Change from Visit 1 (LS Mean ± SE)” value ([2]; Visit 4 (Week 12), p <0.0001) was 47.10±4.21% and the “Insulin (fasting), Change from Visit 1 (LS Mean ± SE)” value ([2]; Visit 4 (Week 12), p <0.0001) was 2.20 ± 0.21 μu/mL. For the same molecule, the “TG, % Change from Visit 1 (LS Mean ± SE)” value ([2]; Visit 4 (Week 12), p <0.0001) was -45.11±3.60%, the “TG, Change from Visit 1 (LS Mean ± SE)” value ([2]; Visit 4 (Week 12), p <0.0001) was -134.71 ± 10.78 mg/dL and the “HDL Cholesterol, % Change from Visit 1 (LS Mean ± SE)” value [2, 6] was 34.56 ± 6.13%. The “HOMA of Beta Cell Function for Insulin, % Change from Visit 1 (LS Mean ± SE)” value [2, 6] was 45.64 ± 6.22%, the “Homa of Insulin Resistance for C-Peptide, % Change from Visit 1 (LS Mean ± SE)” value [2, 6] was 58.29 ± 5.74% and the “Insulin (fasting), % Change from Visit 1 (LS Mean ± SE)” value [2, 6] was 47.10 ± 4.21%. The “TG, % Change from Visit 1 (LS Mean ± SE)” value [2, 6] was −45.11 ± 3.60%, the “increase in the HOMA of Beta-cell function derived from C-peptide from baseline” value ([2]; Week 6, p 0.0104) was 68.25±25.58 and the “HOMA of insulin resistance derived from insulin, percent change from baseline” value ([2]; Week 6, p <0.0001) was 29.10±3.94%. For the same molecule, the “change in the non-HDL cholesterol levels from baseline” value ([2]; Week 6 and Week 12, p-values 0.3963 and 0.4646) was “no statistically significant change”, the “HOMA of insulin resistance derived from insulin, percent change from baseline” value ([2]; Week 12, p <0.0001) was 42.65±3.79% and the “increase in the HOMA of Beta-cell function derived from C-peptide from baseline” value ([2]; Week 12, p <0.0001) was 71.67±16.20. The efficacy [3] was “effective”, the tolerability [3] was “well tolerated” and the “effect of food on absorption” value [4] was “food significantly affects absorption”.
